This note sets out measurements from ChEMBL document CHEMBL1150193, “Euglobal T1, a New Euglobal from Eucalyptus tereticornis” (J Nat Prod, 1991).

The experiment deals with human gammaherpesvirus 4. In words: Inhibition of Epstein-Barr virus early antigen activation.

The structures appear in SMILES notation. The source made the active and inactive calls. The calls are words filed in the database; no cut-off is given here.

With `CC(C)CC(=O)c1c(O)c(C=O)c2c(c1O)C[C@H]1C[C@H](C(C)C)C=C[C@@]1(C)O2`, the result was inactive.
To `CC(C)CC(=O)c1c(O)c(C=O)c(O)c2c1O[C@]1(C)C=C[C@@H](C(C)C)C[C@@H]1C2` belongs “inactive”.
